According to a melting point compilation (Tetko et al.; mined from patent text by program, amines drawn as free bases though some values may be those of a salt):

Row | SMILES | melting point [°C]
1 | COC1CC(C)(C)Cc2c1c(C)nn2-c1ccccn1 (stereo not given) | 66 to 68
2 | CC(=O)C1=C(C)NC(=O)N(C(C)=O)C1c1ccccc1 (stereo not given) | 181 to 183
3 | CCCCCCCN(Cc1ccc(CCCCCC)cc1)C(Nc1ccc(C(F)(F)F)cc1)=C1C(=O)COC1=O | 94 to 98
4 | CC(=O)CC1=C(O)CCCC1=O | 80 to 81
5 | O=C(O)c1ccc(OCc2ccc(Cl)c(Cl)c2)cc1 | 222 to 223
6 | COC(=O)[C@@H]1C[C@H](OC(=O)c2cccs2)C(=O)[C@H]2[C@@]1(C)CC[C@H]1C(=O)O[C@H](c3ccoc3)C[C@]21C | 143 to 145
7 | O=C(NNc1ccccc1Cl)c1ccccc1F | 105 to 107
8 | CSc1nn(C)c(=O)n1Cc1cc(-c2ccccc2)ccc1C | 95.6
9 | CCN(CC)CCOc1ccc(C#Cc2ccc(OC)cc2)cc1 | 59 to 60
10 | CCOC(=O)[C@@H](Cc1ccccc1)C[C@H](Cc1ccccc1)C(=O)NCCC(=O)O (relative stereo) | 84 to 86
11 | CCSCC12CCC(=O)C=C1CCC1C3CC(C)C(=O)C3(C)CCC12 (stereo not given) | 102
12 | Oc1ccc(-c2nc(-c3ccccc3)nc3ccccc23)c(O)c1 | 178 to 180
13 | O=C1CCC(c2ccccc2)(c2ccccc2)C2CN(C(Cc3ccccc3)=NCc3ccccn3)CC12 (stereo not given) | 180
14 | CCN1CCC(c2nc(-c3ccncc3)c(-c3ccc(F)cc3)[nH]2)CC1 | 242 to 244
15 | COc1ccc(-c2nc(N)ncc2-c2ccc(=O)n(C(C)C)n2)cc1F | 174
16 | COc1ccc(C(=C/C=C/C(=O)NCCCOc2cccnc2)c2ccc(OC)cc2)cc1 | 146 to 147
17 | CC(C)N1CCC(C(C#N)(c2ccccc2)c2ccccc2)C1 (stereo not given) | 73 to 74
18 | C=Cc1cnc2c(NC(=O)c3c(Cl)cccc3Cl)cccc2c1CCl | 184 to 186
19 | COc1ccccc1-c1ccccc1/C=C/C1CC(O)CC(=O)O1 (stereo not given) | 129 to 131
20 | CCCNc1ccc([N+](=O)[O-])cc1C(=O)c1ccccc1 | 150
21 | CCc1c(C(F)(F)F)nn(-c2ccc(S(N)(=O)=O)nc2)c1-c1ccc(-c2cncs2)c(F)c1 | 189 to 191

Row | SMILES | melting point [°C]
22 | CNS(=O)(=O)c1cc(Cl)sc1C(=O)O | 103 to 104
23 | CC(C)(C)OC(=O)N1CCN(C(c2ccccc2)c2ccccc2)CC1 | 129 to 131
24 | CC(C)P1(=O)c2ccccc2CN1c1cccc(C(F)(F)F)c1 (stereo not given) | 117 to 119
25 | O=C(O)CCCCCCCSc1ccc(Cl)cc1 | 92 to 93
26 | COCCOc1ccc(C=O)c2cc3ccccc3cc12 | 72 to 74
27 | CCOC(=O)C1=C2NCCN2C(C)=C(C(=O)OC(C)C)C1c1cccc([N+](=O)[O-])c1 (stereo not given) | 136
28 | CCN(CC)CC(=O)Nc1cccc(-c2cc(-c3ccc(F)cc3OCOC)nc(NC(=O)c3ccco3)c2C#N)c1 | 126 to 128
29 | Cc1nc(-c2ccccc2)nc(N2c3ccccc3CC2C(=O)N(C)c2ccc(Cl)cc2)c1C (stereo not given) | 236 to 238
30 | COc1ccc(NC(=O)c2ccc(C(C)(C)CN)cc2)cc1 | 139 to 140
31 | COC(=O)c1cccc(/C=C/c2cccc(OC)c2)c1 | 92 to 94
32 | CCOC(=O)COc1ccc(C(=O)[C@@H](NC(=O)c2ccc(C(=N)NC(=O)OC(C)(C)C)cc2)[C@@H](C)OC(C)(C)C)cc1 | 95 to 97
33 | COCCOCCOC(=O)/C=C/C(=O)/C=C/c1cccc(OC)c1 | 59 to 60
34 | COc1cc2c(cc1N1CCN(CC3=CC4=CCSC4=C3)CC1)OCC2 | 186 to 190
35 | COc1cc(Cl)ccc1CN1C(=O)C(C)(c2cc(C(=O)N3CCCCC3)ccc2Cl)c2cc(Cl)ccc21 (stereo not given) | 205
36 | CCN1CCN(Cc2ccc(-c3cc4ncc(C#N)c(Nc5cc(OC)c(Cl)cc5Cl)c4cc3OC)cc2)CC1 | 126 to 130
37 | CC(C)(C)Sc1c(CC(C)(C)C(=O)O)n(Cc2ccc(Cl)cc2)c2ccc(OCc3cnccn3)cc12 | 173 to 175
38 | O=c1[nH]cc(-c2ccnc(Cl)c2)n1-c1ccc(F)cc1 | 270
39 | CCCc1c(C(=O)C(C)C)c2ccc(C(=O)NO)cc2n1Cc1ccccc1Cl | 185 to 186
40 | O=C(O)c1ccc(NCCOc2ccc(F)cc2)cc1 | 209 to 210
41 | Cn1c(Nc2c(Cl)cccc2Cl)nc2ccc3c(c21)C(=O)NC(C)(C)N3 | 238 to 239
42 | CCC(C)(C)c1cc(-c2cccc(CC3SC(N4CCOCC4)=NC3=O)n2)ccc1O (stereo not given) | 240 to 242

Row | SMILES | melting point [°C]
43 | Nc1cc(-n2c(=O)n(-c3ccccc3)c3ccccc32)ccn1 | 184 to 185
44 | CN1Cc2ccccc2C(O)(Cc2ccc(Cl)cc2F)C1 (stereo not given) | 113 to 116
45 | NS(=O)(=O)c1cnc(-c2cn(-c3nc(-c4ccc(C(F)(F)F)cc4)cc(C(F)(F)F)n3)cn2)s1 | 264
46 | O=C1OC(O)c2c(F)cccc21 (stereo not given) | 97 to 100
47 | COC(=O)N1c2cc(OC)c(OC)cc2C(=O)CC1C (stereo not given) | 156 to 158
48 | NCCCP(=O)(O)C(F)F | 261
49 | Cc1cc(C(C)N(O)C(N)=O)ccc1OC(C)c1ccccc1 (stereo not given) | 133 to 135
50 | COc1ccc(N2C(=O)N(c3cccc(C(N)=O)c3)c3nc(Nc4cccc(CCN(C)C)c4)ncc3C2C)cc1 (stereo not given) | 215 to 230
51 | Nc1cc(-c2nnc(SCc3cccc(F)c3)o2)ccn1 | 175 to 176
52 | CN1C2CCC1C(CO)C(c1ccc(I)cc1)C2 (stereo not given) | 90 to 92
53 | C[Si](C)(C)C#Cc1ccc2c(c1)C(c1ccccc1F)=NCc1c(C(=O)OCC(F)(F)F)ncn1-2 | 220 to 221
54 | CC1Oc2ccc(C3=NNC(=O)CC3)cc2NC1=O (stereo not given) | 275 to 276
55 | CC(=O)NCCC1Cc2c(C)c(OCc3ccccc3)c(C)c(C)c2O1 (racemic) | 138 to 139
56 | CN(C)C(=O)N(C)C(=O)N1CCN(c2ccc(F)cc2)CC1 | 83 to 84
57 | C#CCNC(=O)c1ncn2c1[C@@H]1CCN1C(=O)c1sccc1-2 | 233 to 235
58 | Cn1ncc2c1-c1c(Oc3ccccc3)sc(C(=O)O)c1CC2 | 259 to 261
59 | CCCCCCCCCCNC(=O)c1ccccc1N(CC(=O)OC)CC(=O)OC | 35 to 38
60 | Clc1cc(N2CCNCC2)c(Cl)nn1 | 111 to 115
61 | CCN(c1nc(F)ccc1[N+](=O)[O-])C1CCN(Cc2ccccc2)CC1 | 99 to 100
62 | CC(C)Oc1ccc(CCCCOc2cc(CCC(=O)O)n(C(C)C)n2)c(Oc2ncc(C(F)(F)F)cc2Cl)c1 | 99.5 to 100

Other lines, results leading:

Row | melting point [°C] | SMILES
63 | 30 | CC(C)(/C=C/Br)C(=O)O
64 | 110 to 111 | Nc1ccc(Cn2ncc3ccccc32)cc1
65 | > 300 | O=C(O)c1ccc(-c2cnc3c(c2)N(Cc2ccccc2)CCN3)cc1
66 | 92.5 to 94 | CC1=CC(O)C(OC(=O)c2ccccc2Cl)C(C)(C)CC1=O (stereo not given)
67 | 185 to 187 | CCC(CC)C(NC(=O)c1ccc(Cl)cc1)NC(=NC#N)Nc1cccnc1 (stereo not given)
68 | 189 to 193 | CN1CCC(O)(c2cn(-c3ccnc(NC4CCCC4)n3)c(-c3cccc(C(F)(F)F)c3)n2)CC1
69 | 125 | CCOC(=O)c1ccsc1Nc1ccc(F)cc1[N+](=O)[O-]
70 | 185 | CC(=O)OC1CSC(Oc2ccnc(-c3ccncc3)c2)C(OC(C)=O)C1OC(C)=O (stereo not given)
71 | 99 to 100 | CN(C)C=Nc1ncc(I)c(Cl)n1
72 | 188 to 190 | CN(CCO)c1cc(Cl)nc(SCC(=O)O)n1
73 | 160 | CCC(=O)N1CCN(C(=O)COC2c3ccccc3C(=O)N2c2ccc3ccc(OC)nc3n2)CC1 (stereo not given)
74 | 190 to 192 | CN1c2ccccc2C(=C2CCN(C(=O)OCC(Cl)(Cl)Cl)CC2)c2ccccc21
75 | 206 | NC(=O)c1cc(I)cc(I)c1O
76 | 147 to 149 | O=c1c2c(Cl)cc(Cl)cc2n(Cc2ccccc2)c(=O)n1CC1CCCCC1
77 | 110 to 111 | N#Cc1ccc(Cc2ccc(OCc3ccccc3)cc2)cc1
78 | 51 to 52 | CCN(C(=O)c1ccc2nonc2c1)C1CCCCC1
79 | 80 to 82 | CCOc1c(NC(C)(C)C)c(=O)c1=O
80 | 136 to 138 | CN1CCN(CCCOc2ccccc2Nc2nc(C#N)nc3c2ncn3C2CCCC2)CC1
81 | 170 | CNC(=O)N(c1ccccc1)c1ccccc1

Row | melting point [°C] | SMILES
82 | 66 to 68 | Cc1ccc(O)c(C(=O)C2CC2)c1
83 | 90 to 91 | CN(c1ncccc1C=O)C1CCN(C(=O)OC(C)(C)C)CC1
84 | 229 to 230 | CCCCOC1c2ccccc2C(=O)N(CC2CC2)C1(/C=C/C(=O)O)CNC(=O)OC(C)(C)C (stereo not given)
85 | 226 | O=C(Cn1ccnc1)Nc1cccc2nc(N[C@@H]3CCc4ccccc43)ccc12
86 | 148 to 150 | Cc1ccc(C)c(CN2C(=O)c3ccccc3C2=O)c1
87 | 144 | CCOC(=O)c1sc(-c2ccc(C#N)cc2)nc1C
88 | 175 to 177 | COc1cc(-n2c(OC)nc(C(F)(F)F)cc2=O)c(F)cc1Br
89 | 125 to 127 | CC1=C(C(=O)OCCO)C(c2ccccc2C(F)(F)F)C(C(=O)OCCO)=C(C)N1
90 | > 250 | NS(=O)(=O)c1ccc(NN=C2C(=O)Nc3cc(Oc4ccccc4)ccc32)cc1
91 | 207 | O=C(O)CCCCN1C(=O)NC(=O)C1(c1ccccc1)c1ccccc1
92 | 96 to 97 | O=[N+]([O-])c1cc(F)c(N2CCC3(CC2)CO3)c(F)c1
93 | 170 to 172 | CSc1nnc(-c2ccc(C)cc2)c(-c2ccc(C)cc2)n1
94 | 128 to 130 | CC(=O)Nc1ccc(CNC(=O)c2cccnc2Oc2ccc(F)cc2)cc1
95 | 92 to 93 | Cc1cc(-c2nc(COc3ccc(CCCn4ccnc4)cc3)co2)sc1Br
96 | 94 to 99 | CC(O)C1C(=O)N2C(C(=O)OCc3ccccc3)=CCC12 (stereo not given)
97 | 122 | CC(NC(=O)OC(C#N)c1cccc(Oc2ccccc2)c1)c1cccc2ccccc12 (stereo not given)
98 | 235 to 240 | O=C1CCn2cc(C(=O)NCc3ccc(Cl)cc3)c(=O)c3cc(CN4CCOCC4)cc(c32)N1
99 | 96 to 98 | Cc1ccc(C)c(C(=O)C=Cc2ccccc2C(=O)Cl)c1
100 | 137 to 141 | Cc1cccc(COc2cccc(OCc3ccc4cc(F)cc(F)c4n3)c2)c1OCC(=O)O
